According to article PMC7288026, “Novel Class of Chalcone Oxime Ethers as Potent Monoamine Oxidase-B and Acetylcholinesterase Inhibitors” (Molecules, 2020):
“And” between values parts separate entries of the source, which are not always exact repeats. Identical values can stand only once. Like-named read-outs stand apart in the source and are kept apart here.

Experiments:
[1] = biological target: T1, AChE (Type VI-S from Electrophorus electricus) (Electrophorus electricus, UniProt O42275); assay: AChE inhibition assay (DTNB / acetylthiocholine iodide); assay type: biochemical; details: for remaining activity at 10 µM / Residual Activity (%) AChE (10 µM): mean ± standard error of duplicate experiments
T1 construct: purchased Sigma-Aldrich Type VI-S
Method: (§1) AChE activity was measured using Type VI-S from Electrophorus electricus in the presence of 0.5 mM 5,5’-dithiobis(2-nitrobenzoic acid) and 0.5 mM acetylthiocholine iodide, as described previously. Enzymes and chemicals were purchased from Sigma–Aldrich (St. Louis, MO, USA).
Kinetic experiments were carried out at five substrate and three inhibitor concentrations.

recombinant hMAO-A = biological target: T2, recombinant hMAO-A (Homo sapiens, UniProt P21397); assay: MAO-A inhibition assay (kynuramine substrate); assay type: biochemical; details: for IC50: mean ± standard error of duplicates, reference compounds after 30 min preincubation with enzyme
T2 construct: purchased Sigma-Aldrich
T2 sequence (P21397 1-527): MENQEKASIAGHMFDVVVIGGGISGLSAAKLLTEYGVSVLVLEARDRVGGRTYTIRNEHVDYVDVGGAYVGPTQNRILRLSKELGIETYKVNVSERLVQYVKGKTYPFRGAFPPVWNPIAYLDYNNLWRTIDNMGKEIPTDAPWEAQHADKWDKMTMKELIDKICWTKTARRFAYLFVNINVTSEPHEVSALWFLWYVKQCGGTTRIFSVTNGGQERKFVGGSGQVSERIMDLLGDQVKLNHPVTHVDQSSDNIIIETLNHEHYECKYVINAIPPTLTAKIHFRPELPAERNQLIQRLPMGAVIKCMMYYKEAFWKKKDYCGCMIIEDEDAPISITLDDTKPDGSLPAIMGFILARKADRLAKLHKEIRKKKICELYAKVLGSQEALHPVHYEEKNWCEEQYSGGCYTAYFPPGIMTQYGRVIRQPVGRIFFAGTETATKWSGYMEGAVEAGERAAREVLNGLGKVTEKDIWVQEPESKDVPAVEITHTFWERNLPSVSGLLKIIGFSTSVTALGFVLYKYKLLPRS
Method: as §1, with “Recombinant hMAO-A and hMAO-B activities were assayed while using kynuramine (0.06 mM) and benzylamine (0.3 mM) as substrates, respectively, as described previously. […] AChE” for “AChE”
AChE inhibitory activities were also determined, except at a concentration of 10 µM. […] Kinetic experiments were carried out at five substrate and three inhibitor concentrations.

MAO-B = biological target: T3, MAO-B (Homo sapiens, UniProt P27338); assay: biochemical; details: for SI (selectivity index, ratio of IC50 MAO-A to MAO-B): MAO-A vs. MAO-B IC50 ratio; for IC50: mean ± standard error of duplicates, reference compounds after 30 min preincubation with enzyme, read-out: IC50 (µM) MAO-B; for remaining activity at 1 µM: read-out: Residual Activity (%) MAO-B (1.0 µM)
T3 construct: purchased Sigma-Aldrich
T3 sequence (P27338 1-520): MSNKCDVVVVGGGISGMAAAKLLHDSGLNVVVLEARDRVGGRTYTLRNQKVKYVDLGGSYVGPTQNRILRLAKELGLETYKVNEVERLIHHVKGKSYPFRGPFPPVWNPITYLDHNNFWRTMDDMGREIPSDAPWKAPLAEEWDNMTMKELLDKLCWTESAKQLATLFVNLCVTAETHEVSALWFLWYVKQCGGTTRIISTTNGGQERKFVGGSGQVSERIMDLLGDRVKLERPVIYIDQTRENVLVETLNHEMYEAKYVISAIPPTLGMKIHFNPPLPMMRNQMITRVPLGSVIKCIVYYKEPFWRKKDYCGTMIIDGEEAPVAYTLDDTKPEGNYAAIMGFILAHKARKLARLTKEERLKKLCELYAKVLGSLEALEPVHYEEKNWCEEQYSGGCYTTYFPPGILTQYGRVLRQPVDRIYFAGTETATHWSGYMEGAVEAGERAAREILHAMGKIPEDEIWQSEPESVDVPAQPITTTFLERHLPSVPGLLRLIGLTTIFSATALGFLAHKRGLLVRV
Method: as §1, with “Recombinant hMAO-A and hMAO-B activities were assayed while using kynuramine (0.06 mM) and benzylamine (0.3 mM) as substrates, respectively, as described previously. […] AChE” for “AChE”, “USA). […]” for “USA).”

[2] = compound at 10 µM, read-out: Residual Activity (%) AChE (10 µM)
[3] = compound at 1.0 µM, mean ± standard error of duplicate experiments, read-out: Residual Activity (%) MAO-A (1.0 µM)
[4] = read-out: Residual Activity (%) MAO-A (1.0 µM), compound at 1.0 µM, mean ± standard error of duplicate experiments
[5] = compound at 1.0 µM, mean ± standard error of duplicate experiments

T1 sequence (O42275 24-633): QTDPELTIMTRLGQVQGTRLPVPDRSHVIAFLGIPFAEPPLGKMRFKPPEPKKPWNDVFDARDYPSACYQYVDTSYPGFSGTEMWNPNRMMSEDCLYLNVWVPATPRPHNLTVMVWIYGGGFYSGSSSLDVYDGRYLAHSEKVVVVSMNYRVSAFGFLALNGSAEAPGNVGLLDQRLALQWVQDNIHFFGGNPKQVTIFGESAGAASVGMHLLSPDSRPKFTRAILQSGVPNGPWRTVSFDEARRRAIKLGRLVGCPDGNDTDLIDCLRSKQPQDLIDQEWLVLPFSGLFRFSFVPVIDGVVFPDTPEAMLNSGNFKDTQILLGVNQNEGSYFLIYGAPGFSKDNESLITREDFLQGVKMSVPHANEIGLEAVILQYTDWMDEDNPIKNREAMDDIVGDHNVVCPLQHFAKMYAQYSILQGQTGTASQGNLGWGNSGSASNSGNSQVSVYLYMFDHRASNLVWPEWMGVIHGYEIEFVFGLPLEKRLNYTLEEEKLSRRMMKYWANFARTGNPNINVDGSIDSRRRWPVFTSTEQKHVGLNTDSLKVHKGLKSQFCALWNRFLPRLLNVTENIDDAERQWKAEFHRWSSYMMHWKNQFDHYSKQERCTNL

| SMILES | IC50 [1] [µM] | remaining activity at 10 µM [1, 2] [%] | remaining activity at 1 µM (recombinant hMAO-A; [3]) [%] | IC50 (recombinant hMAO-A) [µM] | SI (selectivity index, ratio of IC50 MAO-A to MAO-B) (MAO-B) | IC50 (MAO-B) [µM] | remaining activity at 1 µM (MAO-B) [%] | Residual Activity (%) MAO-A (1.0 µM) (recombinant hMAO-A; compound at 1.0 µM, mean ± standard error of duplicate experiments, 1 µM) [%] | MAO-A potency relative to pargyline (times more potent) (recombinant hMAO-A; ratio of IC50 values) [times] | MAO-A potency relative to toloxatone (times more potent) (recombinant hMAO-A; ratio of IC50 values) [times] | remaining activity at 10 µM ([1]; read-out: Residual Activity (%) AChE (10 µM), compound at 10 µM) [%] | remaining activity at 1 µM (recombinant hMAO-A; [4]) [%] | Residual Activity (%) AChE (10 µM) ([1]; compound at 10 µM) [%] | remaining activity at 1 µM (MAO-B; [5]) [%] | MAO-B potency relative to clorgyline (times more potent) (MAO-B) | MAO-B potency relative to lazabemide (times more potent) (MAO-B) [times] |
| --- | --- | --- | --- | --- | --- | --- | --- | --- | --- | --- | --- | --- | --- | --- | --- | --- |
| COc1ccc(C(=O)/C=C/c2ccc(O/N=C(\C)c3ccc(OC)cc3)cc2)cc1 [COE-2] | 15.2 ± 0.55 | 66.5 ± 3.36 | 69.9 ± 0.51 | > 10 | >38.5 | 0.26 ± 0.055 | 27.6 ± 2.44 |  |  |  |  |  |  |  |  |  |
| COc1ccc(/C=C/C(=O)c2ccc(O/N=C(\C)c3ccc(F)cc3)cc2)cc1 [COE-11] | > 40 | 87.2 ± 0.47 | 86 ± 6.58 | > 10 | >5.5 | 1.82 ± 0.022 | 68.5 ± 1.83 |  |  |  |  |  |  |  |  |  |
| COc1ccc(C(/C=C/c2ccccc2)=N\Oc2ccc(C(C)=O)cc2)cc1 [COE-16] | > 40 | 77.3 ± 6.62 | 93.4 ± 3.44 | > 10 |  | > 10 | 97.8 ± 0.08 |  |  |  |  |  |  |  |  |  |
| COc1cc(/C=C/C(=O)c2ccc(ON=C(c3ccccc3)c3ccccc3)cc2)cc(OC)c1OC [COE-15] | > 40 | 56.9 ± 1.4 | 95 ± 3.03 | > 10 | >10.5 | 0.95 ± 0.029 | 36.9 ± 9.49 |  |  |  |  |  |  |  |  |  |
| COc1ccc(/C=C/C(=O)c2ccc(O/N=C(/C=C/c3ccc(OC)cc3)c3ccc(OC)cc3)cc2)cc1 [COE-23] | 9.16 ± 0.021 | 57.3 ± 1.34 | 85.1 ± 4.01 | > 10 | >66.7 | 0.15 ± 0.021 | 25.8 ± 4.78 |  |  |  |  |  |  |  |  |  |
| COc1cccc(/C=C/C(=O)c2ccc(O/N=C(\C)c3cccs3)cc2)c1 [COE-13] | > 40 | 57.6 ± 1.96 | < 50 | 0.88 ± 0.03 | 6.8 | 0.13 ± 0.0069 | 31.9 ± 9.75 | 46.2 ± 1.07 | 2.8 | 1.1 |  |  |  |  |  |  |
| COc1ccc(C(=O)/C=C/c2ccc(O/N=C3\CCc4ccccc43)cc2)cc1 [COE-4] | > 40 |  |  | 19.3 ± 0.21 | 32.7 | 0.059 ± 0.012 | 4.31 ± 1.22 |  |  |  | 62.1 ± 1.51 | 83.7 ± 1.54 |  |  |  |  |
| COc1ccc(C(=O)/C=C/c2ccc(O/N=C(\C)c3ccccc3)cc2)cc1 [COE-1] | > 40 | 77.6 ± 2.64 | 94.4 ± 2.99 | > 10 | >35.7 | 0.28 ± 0.041 | 29.9 ± 5.25 |  |  |  |  |  |  |  |  |  |
| COc1ccc(/C=C/C(=O)c2ccc(ON=C3CCCCC3)cc2)cc1 [COE-10] | 9.42 ± 0.031 | < 50 | 67.1 ± 2.02 | > 10 | >47.6 | 0.21 ± 0.01 | 21.6 ± 1.22 |  |  |  |  |  | 47.6 ± 0.93 |  |  |  |
| C/C(=N\Oc1ccc(/C=C/C(=O)c2ccccc2)cc1)c1ccc(F)cc1 [COE-5] | 7.06 ± 1.5 | < 50 | 95.1 ± 2.68 | > 10 | >8.9 | 1.12 ± 0.1 | 57.5 ± 7.01 |  |  |  |  |  | 46.5 ± 0.71 |  |  |  |
| COc1ccc(C(/C=C/c2ccccc2)=N\Oc2ccc(C(=O)/C=C/c3cc(OC)c(OC)c(OC)c3)cc2)cc1 [COE-24] | > 40 | 72.5 ± 2.91 | 88.9 ± 0.98 | > 10 |  | > 10 | 87.4 ± 2.81 |  |  |  |  |  |  |  |  |  |
| COc1ccc(C(/C=C/c2ccccc2)=N\Oc2ccc(/C=C/C(=O)c3ccc(C)cc3)cc2)cc1 [COE-21] | 9.65 ± 1.2 | < 50 | 85.8 ± 1.47 | 15.9 ± 0.59 | 441.7 | 0.036 ± 0.0019 | -2.19 ± 0.08 |  |  |  |  |  | 49.4 ± 2.90 |  |  |  |
| COc1ccc(/C=C/C(=N/Oc2ccc(/C=C/C(=O)c3ccccc3)cc2)c2ccc(OC)cc2)cc1 [COE-19] | 5.35 ± 0.68 | < 50 | 85.3 ± 0.99 | > 10 | >31.3 | 0.32 ± 0.015 | 19.2 ± 3.06 |  |  |  |  |  | 39.0 ± 0.45 |  |  |  |
| Cc1ccc(/C=C/C(=O)c2ccc(O/N=C3\CCc4ccccc43)cc2)cc1 [COE-12] | > 40 | 72 ± 1.95 | 95.7 ± 2.02 | > 10 | >37.0 | 0.27 ± 0.056 |  |  |  |  |  |  |  | 40.5 ± 0.1 |  |  |
| O=C(/C=C/c1ccc(ON=C(c2ccccc2)c2ccccc2)cc1)c1ccc(F)cc1 [COE-7] | > 40 | 76.2 ± 1.02 | 91.7 ± 6.43 | 11 ± 1.22 | 392.9 | 0.028 ± 0.0016 | 2.48 ± 0.15 |  |  |  |  |  |  |  | 68 times and 67 times | 1.5 |
| C/C(=N\Oc1ccc(/C=C/C(=O)c2cccc3ccccc23)cc1)c1cccs1 [COE-9] | 8.39 ± 2.14 | < 50 |  | 7.64 ± 0.16 | 20.6 | 0.037 ± 0.0057 | 9.91 ± 1.83 |  |  |  |  | 71.4 ± 0.51 | 46.7 ± 4.27 |  |  |  |
| COC(=O)c1ccc(O/N=C(/C=C/c2ccc(OC)cc2)c2ccc(OC)cc2)cc1 [COE-18] | 10.6 ± 0.26 | 58.3 ± 5.3 | 88.1 ± 0.99 | > 10 | >11.8 | 0.85 ± 0.12 | 33.3 ± 0.52 |  |  |  |  |  |  |  |  |  |
| COc1cccc(C(=O)/C=C/c2ccc(O/N=C(\C)c3cccc4ccccc34)cc2)c1 [COE-8] | > 40 | 70.7 ± 3.26 | 68.6 ± 2.74 | 7.68 ± 0.34 | 182.9 | 0.042 ± 0.021 |  |  |  |  |  |  |  | 10.5 ± 0.21 |  |  |
| COc1ccc(/C=C/C(=O)c2ccc(O/N=C(\C)c3cccc4ccccc34)cc2)cc1OC [COE-14] | 13.2 ± 0.84 | 62.2 ± 4.19 | 91.1 ± 3.84 | > 10 | >6.3 | 1.58 ± 0.031 | 63.7 ± 1.39 |  |  |  |  |  |  |  |  |  |
| COc1ccc(/C=C/C(=N/Oc2ccc(/C=C/C(=O)c3ccc(OC)cc3)cc2)c2ccc(OC)cc2)cc1 [COE-20] | 11.2 ± 1.33 | 60.6 ± 5.74 | 89.7 ± 4.51 | > 10 | >28.6 | 0.35 ± 0.011 | 21 ± 0.42 |  |  |  |  |  |  |  |  |  |
